Data on one compound can be found in patent US20250339396A1 (COSMAS THERAPEUTICS DEVELOPMENT INC., priority 2021, published 2025).

Series [1] can be described thus: Stability of Prodrug D in solvents by HPLC. The format is physicochemical. Particulars: HPLC Method 2. As to the method: For this test, we used HPLC with different solvent systems. […] Therefore, after initial assessment, this method was used for the remaining tests. Prodrug D or UCM924 (comparator) were dissolved in the different solvents listed in the table below and, after the waiting period indicated, HPLC tests were carried out according to the above. The results are shown in the table below, in which the percentages represent the quantity of prodrug D or UCM924 detected in the samples.

The conditions of series [2]: in vivo; cited from earlier work.
The nature of series [3]: Oral bioavailability and brain penetrance of UCM765 and UCM924.
Series [4] is described as follows: Pharmacokinetic study in male rats (UCM924 measured in plasma). The format is in vivo. Particulars: Sprague-Dawley, rat, po, UCM924 plasmatic level, UCM924 20 mg/kg per os. As to the method:
In vivo pharmacokinetic studies of prodrug D were carried in male rats (Sprague-Dawley, weight 210-214 grams) and male dogs (Beagles, weight 8960-9820 grams). Animals were housed under standard conditions and had free access to water and standard laboratory diet. Care and husbandry of animals were in conformity with the institutional guidelines, in compliance with national and international laws and policies (EEC Council Directive 86/609, OJL 358m, 1, Dec. 122, 1987; NIH Guide for the care and Use of Laboratory Animals, NIH Publication No. 86-23, 1985). The compounds were dissolved in water containing 40% PEG 400 at a concentration of 15 mg/ml (clear solution) for the PO dose for Dog, or in water containing 40% PEG 400 at a concentration of 12.5 mg/ml (clear solution) for the PO dose for Rat. Rats were randomly assigned to treatment groups (n=3) and received a single oral administration (50 mg/kg) of Prodrug D and the level of the active metabolite UCM924 was then measured. Serial blood samples (200 uL) were collected from caudal vein at 5, 15, 30, 60, 120, 240, 360, 480 and 1440 min after PO administration. Blood samples were collected into a prechilled commercial tube (Jiangsu Kangjian medical supplies co., LTD) containing Potassium (K2) EDTA (0.85-1.15 mg). […] UCM924 (20 mg/kg) was also administered per os in rats and IV in dogs (2 mg/kg) and it was measured in plasma. […]

The conditions of series [5]: in vivo; cited from earlier work. The source holds these as a separate data set.
Series [6] is described as follows: Pharmacokinetic study in male Beagle dogs (UCM924 measured in plasma). Particulars: dog, UCM924 plasmatic level, UCM924 2 mg/kg IV. The format is in vivo. As to the method:
In vivo pharmacokinetic studies of prodrug D were carried in male rats (Sprague-Dawley, weight 210-214 grams) and male dogs (Beagles, weight 8960-9820 grams). Animals were housed under standard conditions and had free access to water and standard laboratory diet. Care and husbandry of animals were in conformity with the institutional guidelines, in compliance with national and international laws and policies (EEC Council Directive 86/609, OJL 358m, 1, Dec. 122, 1987; NIH Guide for the care and Use of Laboratory Animals, NIH Publication No. 86-23, 1985). The compounds were dissolved in water containing 40% PEG 400 at a concentration of 15 mg/ml (clear solution) for the PO dose for Dog, or in water containing 40% PEG 400 at a concentration of 12.5 mg/ml (clear solution) for the PO dose for Rat. Dogs were randomly assigned to treatment groups (n=3) and received a single oral administration (15 mg/kg) through oral gavage of Prodrug D and the level of the active metabolite UCM924 was then measured. Serial blood samples (200 uL) were collected from caudal vein at 5, 15, 30, 60, 120, 240, 360, 480 and 1440 min after PO administration. […] UCM924 (20 mg/kg) was also administered per os in rats and IV in dogs (2 mg/kg) and it was measured in plasma. […]

Broadly, the bioavailability is the share of a dose that reaches the circulation, judged against a reference dose that is usually intravenous. Higher therefore signals good availability. Usually AUC(0-t) stands for exposure summed from dosing to a finite time, without extrapolation to infinity. Low values mean less exposure, high ones more exposure. In general, Cmax refers to the peak of the concentration-time curve. By half-life is commonly meant the time needed for the level to fall by half in the phase considered. `CC(=O)NCCN(c1ccc(F)cc1)c1cccc(Br)c1` [UCM924, N-{2-[(3-bromophenyl)-(4-fluorophenyl)amino]ethyl}acetamide]: the “quantity detected in the sample by HPLC” value in series [1] (1N HCl, overnight at rt, pH ~0) is 14.79%; in series [1] (40% PEG400:60% H2O, overnight at rt, pH ~7.0) it was 40.16%; in series [1] (H2O, overnight at rt, pH ~7.0), 80.09%; in series [1] (Saturated NaHCO3aq, 2 h at rt, pH ~8.5), 62.33%. The “antinociceptive properties in tests for chronic neuropathic pain” value in series [2] is reported as “potent antinociceptive properties”. In addition, the Kp in series [3] (brain) amounted to 2.5. The compound further had a bioavailability in series [3] (in vivo, po) of 6%. The AUC(0-t) in series [4] worked out at 97.7 ± 61 ng·h/mL; in series [6], 1690 ± 275 ng·h/mL. In series [4], this compound had a Cmax of 42 ± 34 ng/mL. For the same compound, the “motor impairments in the RotaRod test” value in series [5] was “did not produce any motor impairments”. The same compound showed a half-life in series [6] of 1.79 ± 0.4 h.
